Source: ChEMBL document CHEMBL1201862, “PubChem BioAssay data set” (2004)
Calls of active or inactive are those of the source.

What was measured:
[1] = biological target: CAAX prenyl protease 2 (Homo sapiens, UniProt Q9Y256); assay: human Rce1 protease inhibitors, dose response, biochemical, yeast membranes, quenched-peptide fluorescence, cherry-pick (AID 588849)
[2] = Luminescence Cell-Based Dose Response HTS to Identify Inhibitors of Luciferase Translation or Activity in H4-C Neuroglioblastoma Cells. [Related pubchem assays: 1813 (Primary HTS), 1827 (Project Summary)]; format: functional
[3] = Luminescence Cell-Based Dose Response HTS to Identify Activators of Luciferase Translation or Activity in H4-C Neuroglioblastoma Cells. [Related pubchem assays: 1829 (Project Summary), 1814 (Primary HTS)]; format: functional
[4] = inhibitors of firefly luciferase expression or activity, dose response, H4 neuroglioma cells, luminescence (AID 1990); format: functional, cell-based
[5] = Luminescence Cell-Based Dose Retest to Confirm Activators of 5'UTR Stem-Loop Driven Alpha-Synuclein mRNA Translation in H4 Neuroglioblastoma Cells. [Related pubchem assays (depositor defined):AID1813, AID1829]; format: functional
[6] = Luminescence Cell-Based Dose Response HTS to Identify Activators of 5'UTR Stem-Loop Driven Prion Protein mRNA Translation in H4-C Neuroglioblastoma Cells. [Related pubchem assays: 1829 (Project Summary), 1814 (Primary HTS)]; format: functional
[7] = Luminescence Cell-Based Dose HTS Response to Identify Inhibitors of 5'UTR Stem-Loop Driven Prion Protein mRNA Translation in H4-C Neuroglioblastoma Cells. [Related pubchem assays (depositor defined):AID1814, AID1827]; format: functional
[8] = Luminescence Cell-Based Dose Response HTS to Identify Inhibitors of 5'UTR Stem-Loop Driven Prion Protein mRNA Translation in H4 Neuroglioblastoma Cells. [Related pubchem assays: 1827 (Project Summary), 1813 (Primary HTS)]; format: functional
[9] = inhibitors of SNCA 5'UTR-driven reporter translation, confirmation, H4 neuroglioma cells, luminescence (AID 1988); format: functional, cell-based
[10] = Luminescence Cell-Based Dose Confirmation HTS to Identify Inhibitors of 5'UTR Stem-Loop Driven Alpha-Synuclein mRNA Translation in H4 Neuroglioblastoma Cells. [Related pubchem assays: 1827 (Project Summary), 1813 (Primary HTS)]; format: functional
[11] = tested on: HeLa; assay: HeLa cell cytotoxicity, dose response, cytotoxicity control, 24 h, cherry-picked samples (AID 504726); format: functional, cell-based; conditions: Homo sapiens;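 also: potency for cytotoxicity as loss of luminescence signal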
[12] = biological target: ORF 73 (Human herpesvirus 8, UniProt O40947); assay: inhibitors of C-LANA binding to LBS DNA, dose response, biochemical, fluorescence polarization, cherry-picked samples (AID 504725); parameters: species or system Human gammaherpesvirus 8;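 also: fluorescence polarization of a labeled DNA duplex reporting LANA DNA binding; potency is for inhibitors that block LANA binding to the DNA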
[13] = biological target: Troponin, cardiac muscle (Homo sapiens, UniProt P19429+P45379+P63316); assay: Fluorescence-based biochemical high throughput dose response assay for activators of the calcium sensitivity of cardiac Regulated Thin Filaments (RTF). [Related pubchem assays (depositor defined):AID493008, AID493018, AID504382, AID504383]; format: protein-complex assay
[14] = biological target: UDP-galactopyranose mutase (Mycobacterium tuberculosis, UniProt P9WIQ1); assay: Inhibitors of Mycobacterium tuberculosis UDP-galactopyranose mutase (UGM) enzyme Measured in Biochemical System Using Plate Reader - 2105-02_Inhibitor_Dose_CherryPick_Activity. [Related pubchem assays (depositor defined):AID504439]
[15] = biological target: Keap1/Nrf2 (Homo sapiens, UniProt Q14145); assay: Keap1-Nrf2 protein-protein interaction inhibitors, dose response, biochemical, fluorescence polarization, cherry-picked samples (AID 588683)
[16] = biological target: T1, Short transient receptor potential channel 4 (Mus musculus, UniProt Q9QUQ5); assay: mouse TRPC4 channel activators, dose response, cell-based, HEK293 TRPC4/mu-opioid, Fluo-4 calcium (AID 434937); format: functional
T1 sequence (Q9QUQ5 whole entry): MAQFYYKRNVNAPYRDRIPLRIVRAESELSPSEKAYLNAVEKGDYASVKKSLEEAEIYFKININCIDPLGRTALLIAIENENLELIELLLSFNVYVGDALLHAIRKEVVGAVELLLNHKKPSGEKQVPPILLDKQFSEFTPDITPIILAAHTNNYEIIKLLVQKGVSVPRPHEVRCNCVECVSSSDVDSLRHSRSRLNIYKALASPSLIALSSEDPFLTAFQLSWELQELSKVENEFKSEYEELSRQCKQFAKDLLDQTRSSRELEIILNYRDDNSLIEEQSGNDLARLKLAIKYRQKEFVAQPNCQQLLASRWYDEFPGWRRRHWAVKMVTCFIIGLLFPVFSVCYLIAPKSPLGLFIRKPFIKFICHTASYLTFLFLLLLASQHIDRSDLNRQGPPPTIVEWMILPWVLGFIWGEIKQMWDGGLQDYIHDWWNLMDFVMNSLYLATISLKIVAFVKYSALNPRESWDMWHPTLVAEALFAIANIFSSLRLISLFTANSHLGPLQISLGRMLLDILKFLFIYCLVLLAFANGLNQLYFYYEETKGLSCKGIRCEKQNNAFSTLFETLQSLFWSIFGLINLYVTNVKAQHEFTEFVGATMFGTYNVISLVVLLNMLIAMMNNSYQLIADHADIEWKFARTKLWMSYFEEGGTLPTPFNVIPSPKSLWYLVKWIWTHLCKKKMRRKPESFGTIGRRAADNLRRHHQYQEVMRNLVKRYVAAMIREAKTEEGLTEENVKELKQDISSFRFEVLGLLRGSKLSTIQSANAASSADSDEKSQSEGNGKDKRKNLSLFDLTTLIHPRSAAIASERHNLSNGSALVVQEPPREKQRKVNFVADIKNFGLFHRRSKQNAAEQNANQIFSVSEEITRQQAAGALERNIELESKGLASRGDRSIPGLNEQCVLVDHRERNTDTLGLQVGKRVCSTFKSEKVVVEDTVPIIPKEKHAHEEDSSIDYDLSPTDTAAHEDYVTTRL

[17] = biological target: Delta-type opioid receptor (Homo sapiens, UniProt P41143); assay: Counterscreen for agonists of heterodimerization of the mu 1 (OPRM1) and delta 1 (OPRD1) opioid receptors: Luminescence-based cell-based high throughput dose response assay to identify agonists of OPRD1 homodimerization. [Related pubchem assays (depositor defined):AID504326, AID504355, AID504692, AID504904, AID504905]; format: functional
[18] = biological target: Mu-type opioid receptor (Homo sapiens, UniProt P35372); assay: Counterscreen for agonists of heterodimerization of the mu 1 (OPRM1) and delta 1 (OPRD1) opioid receptors: Luminescence-based cell-based high throughput dose response assay to identify agonists of OPRM1 homodimerization.; format: functional;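 also: U2OS cells expressing OPRM1 and beta-arrestin as split beta-galactosidase partners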
[19] = biological target: 5-hydroxytryptamine receptor 5A (Homo sapiens, UniProt P47898); assay: Counterscreen for agonists of OPRM1-OPRD1 heterodimerization: luminescence-based cell-based high throughput dose response assay to identify agonists of 5-hydroxytryptamine (serotonin) 5A receptor (HTR5A). [Related pubchem assays (depositor defined):AID504326, AID504355, AID504692, AID504904, AID504905]; format: functional
[20] = biological target: Cytochrome P450 2D6 (Homo sapiens, UniProt P10635);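 also: CYP2D6 member of a cytochrome P450 panel assay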
[21] = tested on: Escherichia coli; assay: microbe, parasite or virus in culture
[22] = biological target: Hexokinase-1 (Homo sapiens, UniProt P19367); assay: HK1 enzyme inhibition by HKDC1 hits, SAR follow-up, selectivity assay for HKDC1 inhibitor project, biochemical, set 2, resazurin fluorescence coupled readout (AID 588356); format: functional
[23] = biological target: T2, Hexokinase HKDC1 (Homo sapiens, UniProt Q2TB90); assay: HKDC1 hexokinase inhibitors, SAR follow-up, biochemical, set 2 (AID 588355); format: functional
T2 sequence (Q2TB90 whole entry): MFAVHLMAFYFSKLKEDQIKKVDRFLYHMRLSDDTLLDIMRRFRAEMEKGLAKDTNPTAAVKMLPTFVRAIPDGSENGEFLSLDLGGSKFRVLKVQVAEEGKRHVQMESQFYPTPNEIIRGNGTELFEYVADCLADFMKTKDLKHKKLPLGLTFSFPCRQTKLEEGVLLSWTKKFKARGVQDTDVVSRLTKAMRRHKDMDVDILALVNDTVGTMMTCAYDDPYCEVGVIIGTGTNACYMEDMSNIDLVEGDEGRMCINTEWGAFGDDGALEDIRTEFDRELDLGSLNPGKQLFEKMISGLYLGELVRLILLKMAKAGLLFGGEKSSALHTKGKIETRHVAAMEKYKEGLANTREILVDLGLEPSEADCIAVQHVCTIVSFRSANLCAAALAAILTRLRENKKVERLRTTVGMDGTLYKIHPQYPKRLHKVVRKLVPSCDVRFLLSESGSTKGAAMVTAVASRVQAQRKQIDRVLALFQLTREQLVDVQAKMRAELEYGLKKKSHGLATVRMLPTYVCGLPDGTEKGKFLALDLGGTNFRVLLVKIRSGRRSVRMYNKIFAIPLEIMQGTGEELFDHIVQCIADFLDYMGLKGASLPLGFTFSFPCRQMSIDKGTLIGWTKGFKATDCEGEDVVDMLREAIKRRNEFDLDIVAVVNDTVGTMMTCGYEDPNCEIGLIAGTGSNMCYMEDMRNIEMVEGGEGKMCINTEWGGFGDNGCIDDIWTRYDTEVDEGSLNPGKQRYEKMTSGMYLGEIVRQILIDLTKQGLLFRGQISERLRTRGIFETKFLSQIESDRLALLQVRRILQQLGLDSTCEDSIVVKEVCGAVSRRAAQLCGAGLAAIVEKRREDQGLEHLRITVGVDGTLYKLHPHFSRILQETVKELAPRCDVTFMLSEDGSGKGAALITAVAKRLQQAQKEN

[24] = Luminescence Cell-Based Dose Retest to Confirm Inhibitors of Cancer Stem Cells. [Related pubchem assays (depositor defined):AID2717, AID2721]; format: functional; conditions: Homo sapiens
[25] = biological target: Intestinal-type alkaline phosphatase (Mus musculus, UniProt P24822); assay: PubChem AID 488875; format: functional
[26] = biological target: T3, Intestinal-type alkaline phosphatase (Homo sapiens, UniProt P09923); assay: human intestinal alkaline phosphatase activators, dose response, biochemical, luminescence, uHTS hits (AID 463120); format: functional
[27] = biological target: T3, Intestinal-type alkaline phosphatase; assay: human IAP activators, dose response, biochemical, luminescent, uHTS hits, set 2 (AID 488817); format: functional;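 also: potency of activators that raise enzyme activity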
[28] = biological target: T4, Alkaline phosphatase, tissue-nonspecific isozyme (Homo sapiens, UniProt P05186); assay: TNAP enzyme activators, dose response, selectivity assay for human IAP activator project, biochemical, TNAP isozyme, human IAP uHTS hits (AID 488886); format: functional;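 also: potency of compounds raising TNAP activity as a selectivity check on IAP activators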
T4 sequence (P05186 whole entry): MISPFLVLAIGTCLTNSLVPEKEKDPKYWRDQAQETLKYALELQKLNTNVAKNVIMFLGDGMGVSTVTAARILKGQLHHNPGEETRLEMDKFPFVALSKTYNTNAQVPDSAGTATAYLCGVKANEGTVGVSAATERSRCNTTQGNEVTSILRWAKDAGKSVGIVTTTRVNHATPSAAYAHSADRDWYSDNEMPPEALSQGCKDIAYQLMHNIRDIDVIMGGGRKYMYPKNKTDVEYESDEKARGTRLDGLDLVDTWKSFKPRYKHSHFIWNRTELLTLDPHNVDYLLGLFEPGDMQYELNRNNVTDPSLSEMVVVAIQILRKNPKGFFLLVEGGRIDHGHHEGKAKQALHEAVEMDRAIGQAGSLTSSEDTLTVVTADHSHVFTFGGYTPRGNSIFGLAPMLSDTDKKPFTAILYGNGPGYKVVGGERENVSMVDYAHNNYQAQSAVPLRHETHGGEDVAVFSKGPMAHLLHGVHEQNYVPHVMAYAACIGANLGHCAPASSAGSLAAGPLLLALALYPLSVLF

T3 sequence (P09923 whole entry): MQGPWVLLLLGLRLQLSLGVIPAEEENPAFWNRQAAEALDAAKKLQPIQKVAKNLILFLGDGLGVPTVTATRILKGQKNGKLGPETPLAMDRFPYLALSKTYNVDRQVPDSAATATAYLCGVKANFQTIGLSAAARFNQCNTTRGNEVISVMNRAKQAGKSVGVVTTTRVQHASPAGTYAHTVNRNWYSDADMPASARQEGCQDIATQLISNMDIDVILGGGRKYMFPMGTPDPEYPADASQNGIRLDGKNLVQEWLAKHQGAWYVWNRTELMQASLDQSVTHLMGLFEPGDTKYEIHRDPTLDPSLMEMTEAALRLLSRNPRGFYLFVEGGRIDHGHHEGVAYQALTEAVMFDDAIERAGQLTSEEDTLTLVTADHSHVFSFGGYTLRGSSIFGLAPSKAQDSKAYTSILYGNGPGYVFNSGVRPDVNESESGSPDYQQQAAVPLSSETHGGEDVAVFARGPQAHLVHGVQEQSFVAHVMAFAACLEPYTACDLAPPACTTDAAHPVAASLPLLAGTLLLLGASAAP
Sequence of ORF 73 (O40947 whole entry): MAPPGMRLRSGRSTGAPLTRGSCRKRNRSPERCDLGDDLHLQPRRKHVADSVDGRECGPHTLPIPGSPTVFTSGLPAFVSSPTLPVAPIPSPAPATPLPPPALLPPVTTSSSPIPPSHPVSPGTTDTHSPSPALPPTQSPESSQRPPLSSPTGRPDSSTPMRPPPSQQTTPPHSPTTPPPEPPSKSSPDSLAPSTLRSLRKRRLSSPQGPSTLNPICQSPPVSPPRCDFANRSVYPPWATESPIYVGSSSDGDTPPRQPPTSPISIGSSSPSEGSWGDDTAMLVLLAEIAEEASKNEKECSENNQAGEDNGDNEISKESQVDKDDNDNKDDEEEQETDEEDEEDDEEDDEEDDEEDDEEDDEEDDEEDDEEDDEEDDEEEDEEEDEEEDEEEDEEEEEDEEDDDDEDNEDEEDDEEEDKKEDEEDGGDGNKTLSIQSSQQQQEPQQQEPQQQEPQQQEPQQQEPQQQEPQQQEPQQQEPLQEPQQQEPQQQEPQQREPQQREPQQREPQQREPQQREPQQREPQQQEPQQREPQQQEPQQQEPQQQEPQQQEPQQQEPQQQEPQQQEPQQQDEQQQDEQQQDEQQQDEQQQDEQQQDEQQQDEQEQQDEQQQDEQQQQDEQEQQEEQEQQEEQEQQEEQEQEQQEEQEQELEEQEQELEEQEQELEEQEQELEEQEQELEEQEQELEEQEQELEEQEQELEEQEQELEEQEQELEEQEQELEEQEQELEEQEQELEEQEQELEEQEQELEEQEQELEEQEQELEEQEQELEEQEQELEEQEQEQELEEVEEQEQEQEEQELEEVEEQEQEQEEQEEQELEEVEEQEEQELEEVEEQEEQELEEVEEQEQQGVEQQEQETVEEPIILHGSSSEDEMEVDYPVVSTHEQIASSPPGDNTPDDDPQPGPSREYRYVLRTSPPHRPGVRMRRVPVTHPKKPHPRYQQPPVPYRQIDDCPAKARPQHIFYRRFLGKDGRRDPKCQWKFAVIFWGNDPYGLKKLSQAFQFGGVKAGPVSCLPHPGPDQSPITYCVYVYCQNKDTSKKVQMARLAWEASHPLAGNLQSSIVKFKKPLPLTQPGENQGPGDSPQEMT
Sequence of CAAX prenyl protease 2 (Q9Y256 whole entry): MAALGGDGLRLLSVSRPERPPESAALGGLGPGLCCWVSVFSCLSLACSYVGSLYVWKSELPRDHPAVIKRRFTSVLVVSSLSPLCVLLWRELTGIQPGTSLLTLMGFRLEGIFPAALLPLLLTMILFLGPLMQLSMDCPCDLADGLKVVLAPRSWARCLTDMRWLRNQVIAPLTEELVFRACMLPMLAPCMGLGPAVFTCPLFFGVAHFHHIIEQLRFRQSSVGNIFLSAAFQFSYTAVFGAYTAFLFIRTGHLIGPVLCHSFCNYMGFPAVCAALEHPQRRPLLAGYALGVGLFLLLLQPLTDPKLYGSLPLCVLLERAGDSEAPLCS
Sequence of Intestinal-type alkaline phosphatase (Mus musculus, UniProt P24822) (P24822 whole entry): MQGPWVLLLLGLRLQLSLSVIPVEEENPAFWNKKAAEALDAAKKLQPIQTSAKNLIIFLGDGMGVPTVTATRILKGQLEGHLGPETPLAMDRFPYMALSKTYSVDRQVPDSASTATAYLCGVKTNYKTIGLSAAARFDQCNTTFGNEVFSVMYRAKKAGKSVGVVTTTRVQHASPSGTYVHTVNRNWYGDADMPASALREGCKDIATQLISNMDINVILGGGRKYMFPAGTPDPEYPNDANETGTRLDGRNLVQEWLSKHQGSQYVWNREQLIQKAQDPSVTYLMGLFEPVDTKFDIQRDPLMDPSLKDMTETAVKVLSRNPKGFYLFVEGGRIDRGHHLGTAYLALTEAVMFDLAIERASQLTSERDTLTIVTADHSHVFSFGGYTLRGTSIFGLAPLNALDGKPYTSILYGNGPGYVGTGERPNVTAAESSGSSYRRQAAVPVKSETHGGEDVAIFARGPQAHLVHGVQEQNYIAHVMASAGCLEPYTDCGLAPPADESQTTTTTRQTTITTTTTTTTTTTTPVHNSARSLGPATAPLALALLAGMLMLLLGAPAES
Sequence of Mu-type opioid receptor (P35372 whole entry): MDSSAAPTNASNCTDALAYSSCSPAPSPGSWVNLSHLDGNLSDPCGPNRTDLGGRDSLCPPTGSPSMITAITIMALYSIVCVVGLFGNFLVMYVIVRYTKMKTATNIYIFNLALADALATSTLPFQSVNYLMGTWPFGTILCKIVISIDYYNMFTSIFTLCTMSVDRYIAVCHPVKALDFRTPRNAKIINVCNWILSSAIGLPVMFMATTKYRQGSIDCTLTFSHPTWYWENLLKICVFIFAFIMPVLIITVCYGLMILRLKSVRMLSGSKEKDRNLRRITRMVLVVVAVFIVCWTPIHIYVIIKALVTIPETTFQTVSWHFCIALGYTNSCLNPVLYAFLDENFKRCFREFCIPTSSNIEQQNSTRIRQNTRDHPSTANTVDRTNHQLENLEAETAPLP
Sequence of UDP-galactopyranose mutase (P9WIQ1 whole entry): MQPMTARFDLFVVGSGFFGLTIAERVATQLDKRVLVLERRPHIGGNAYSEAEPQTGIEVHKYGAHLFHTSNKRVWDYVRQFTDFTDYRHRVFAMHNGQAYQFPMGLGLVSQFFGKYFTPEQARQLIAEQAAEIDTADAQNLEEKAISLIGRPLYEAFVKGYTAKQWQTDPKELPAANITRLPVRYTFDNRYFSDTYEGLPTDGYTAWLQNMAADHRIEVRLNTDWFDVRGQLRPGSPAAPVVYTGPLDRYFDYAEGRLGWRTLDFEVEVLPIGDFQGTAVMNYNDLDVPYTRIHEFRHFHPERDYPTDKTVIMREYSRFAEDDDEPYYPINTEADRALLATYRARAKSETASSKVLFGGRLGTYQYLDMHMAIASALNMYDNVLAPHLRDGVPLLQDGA
Sequence of Keap1/Nrf2 (Q16236 whole entry): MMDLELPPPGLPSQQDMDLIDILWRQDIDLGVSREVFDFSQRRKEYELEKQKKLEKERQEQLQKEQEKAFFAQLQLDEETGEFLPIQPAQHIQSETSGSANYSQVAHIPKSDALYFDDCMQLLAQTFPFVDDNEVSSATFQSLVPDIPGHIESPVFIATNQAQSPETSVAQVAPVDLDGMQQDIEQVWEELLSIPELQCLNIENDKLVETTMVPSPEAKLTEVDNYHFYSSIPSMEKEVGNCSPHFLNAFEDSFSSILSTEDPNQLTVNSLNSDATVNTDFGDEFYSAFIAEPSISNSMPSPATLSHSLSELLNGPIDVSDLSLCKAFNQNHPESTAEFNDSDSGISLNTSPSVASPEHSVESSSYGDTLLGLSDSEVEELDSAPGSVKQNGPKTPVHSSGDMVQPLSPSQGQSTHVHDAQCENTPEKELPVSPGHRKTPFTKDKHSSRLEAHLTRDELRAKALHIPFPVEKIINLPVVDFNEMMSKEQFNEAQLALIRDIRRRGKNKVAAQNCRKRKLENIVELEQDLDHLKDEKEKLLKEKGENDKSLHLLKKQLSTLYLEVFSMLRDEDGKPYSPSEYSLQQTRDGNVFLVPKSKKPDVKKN
Sequence of Keap1/Nrf2 (Q14145 whole entry): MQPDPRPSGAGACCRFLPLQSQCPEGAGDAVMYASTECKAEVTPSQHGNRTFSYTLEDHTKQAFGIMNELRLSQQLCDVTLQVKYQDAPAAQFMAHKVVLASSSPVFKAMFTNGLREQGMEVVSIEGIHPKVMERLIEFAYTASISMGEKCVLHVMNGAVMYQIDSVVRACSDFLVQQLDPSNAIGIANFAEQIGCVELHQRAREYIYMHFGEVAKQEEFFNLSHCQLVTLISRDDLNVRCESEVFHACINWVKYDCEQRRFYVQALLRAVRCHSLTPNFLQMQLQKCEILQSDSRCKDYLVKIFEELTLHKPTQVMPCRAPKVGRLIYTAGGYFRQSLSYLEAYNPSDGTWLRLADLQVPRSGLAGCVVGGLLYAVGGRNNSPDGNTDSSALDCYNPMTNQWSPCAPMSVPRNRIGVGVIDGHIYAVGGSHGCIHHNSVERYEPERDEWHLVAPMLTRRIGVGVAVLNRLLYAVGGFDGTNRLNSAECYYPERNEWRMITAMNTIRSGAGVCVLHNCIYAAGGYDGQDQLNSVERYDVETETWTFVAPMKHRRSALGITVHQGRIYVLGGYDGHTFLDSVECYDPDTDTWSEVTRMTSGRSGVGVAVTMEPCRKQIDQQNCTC
Sequence of Delta-type opioid receptor (P41143 whole entry): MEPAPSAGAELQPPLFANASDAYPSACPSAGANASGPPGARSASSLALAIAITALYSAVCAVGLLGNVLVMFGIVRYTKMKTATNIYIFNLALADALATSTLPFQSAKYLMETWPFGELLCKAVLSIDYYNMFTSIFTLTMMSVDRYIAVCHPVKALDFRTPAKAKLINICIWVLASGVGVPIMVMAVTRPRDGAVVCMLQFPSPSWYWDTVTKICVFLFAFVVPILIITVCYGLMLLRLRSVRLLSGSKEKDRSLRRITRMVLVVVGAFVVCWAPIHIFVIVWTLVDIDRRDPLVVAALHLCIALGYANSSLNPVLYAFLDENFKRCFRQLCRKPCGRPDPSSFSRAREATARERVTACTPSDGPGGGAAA

Compound: CC(C)C(NC(=O)c1ccco1)C(=O)NCC(c1ccco1)N1CCCCC1 (stereo not drawn)
- AC50 [1]: 48.9 µM (active)

Compound: O=C(OCCN1C(=O)c2cccc3c(N4CCOCC4)ccc(c23)C1=O)c1ccc(Cl)cc1Cl
- EC50 [2]: 2.14 µM (active)
- EC50 [3]: 2.14 µM (inconclusive)
- EC50 [4]: 9.06 µM (inconclusive)
- EC50 [5]: 6.15 µM (inconclusive)
- EC50 [6]: 722 nM (inconclusive)
- EC50 [7]: 722 nM (active)
- EC50 [8]: 12 µM (active)
- EC50 [9]: 331 nM (active)
- EC50 [10]: 6.15 µM (active)
- AC50 [11]: 16.5 µM (active)
- AC50 [12]: 15.5 µM (active)
- EC50 [13]: 1.11 µM (active)
- AC50 [14]: 5.23 µM (active)
- AC50 [15]: 7.59 µM (active)

Compound: CCC(=O)OC1(c2cccc(C)c2)CC(C)N(C)CC1C (stereo not drawn)
- EC50 [16]: 335 nM (active)
- EC50 [17]: > 92.5 µM (inactive)
- EC50 [18]: > 92.5 µM (inactive)
- EC50 [19]: > 92.5 µM (inactive)

Compound: Cc1cn([C@H]2C[C@H](O)[C@@H](COC(N)=O)O2)c(=O)[nH]c1=O
- AC50 [20]: inconclusive

Compound: CN1CCN(C(=S)c2cn(Cc3ccc(Br)cc3)c3ccccc23)CC1
- AC50 [21]: 48.2 µM (active)

Compound: COc1cc2c(cc1OC)-c1cc(NCCO)nc(=O)n1CC2
- IC50 [22]: > 80 µM (inactive)
- IC50 [23]: > 80 µM (inactive)

Compound: Cc1ccc(-c2cc(C(=O)N/N=C/c3ccccc3O)[nH]n2)o1
- AC50 [24]: 8.36 µM (active)
- EC50 [25]: > 100 µM (inactive)
- EC50 [26]: 5.71 µM (active)
- EC50 [27]: 6.54 µM (active)
- EC50 [28]: 3.89 µM (active)
